# Test results from patent US10493254B2, “Permeant delivery system and methods for use thereof” (priority 2008, dated 2019).
# Assay: Exenatide delivery from liquid patch with permeability enhancer through microporated abdomen
# Conditions: hairless rat abdomen microporated; patch with 20 OuL solution of exenatide (10.5 mg/mL) and agent (3% w/v); fresh solution every four hours
smiles,measurement,value
O=C([O-])CC(O)(CC(=O)[O-])C(=O)O.[Na+].[Na+] [disodium citrate],exenatide levels over 24 hours,roughly steady levels
